Laboratory results: paper PMC6508583 (Journal of the American Chemical Society, 2019)
Values after ≈ are worked out from the molar mass of the structure shown. Like-named read-outs stand apart in the source and are kept apart here.

Columns and labels:
[1] = tested on: wild-type bacterial ribosome; test: Cell-free translation assay, wild-type bacterial ribosome; format: biochemical; settings: in vitro translation inhibition
[2] = tested on: Mit13 hybrid ribosome (decoding A site of the human mitochondrial ribosome); format: biochemical; settings: for Selectivity Mit 13: Mit13 over wt bacterial ribosome; for IC50 Mit13: in vitro translation inhibition, Mit13 hybrid ribosome
[3] = tested on: A1555G mutant mitochondrial hybrid ribosome; format: biochemical, human; settings: for Selectivity A1555G: A1555G over wt bacterial ribosome; for IC50 A1555G: in vitro translation inhibition, A1555G mutant mitochondrial hybrid ribosome
[4] = tested on: Cyt14 hybrid ribosome (decoding A site of the human cytoplasmic ribosome); format: biochemical; settings: for Selectivity Cyt14: Cyt14 over wt bacterial ribosome; for IC50 Cyt 14: in vitro translation inhibition, Cyt14 hybrid ribosome
[5] = tested on: MRSA; test: Antibacterial activity against reference strains: MRSA; format: cell-based; settings: for MIC: Staphylococcus aureus, MRSA
[6] = tested on: E. cloacae; test: Antibacterial activity against reference strains: E. cloacae; format: cell-based; settings: for MIC: Enterobacter cloacae, read-out: Antibacterial activity (MIC) E. cloacae AG290
[7] = tested on: E. coli carrying specific resistance determinants; test: Activity against wild-type and engineered E. coli carrying specific AMEs or RMTs; format: cell-based; settings: Escherichia coli
[8] = tested on: E. coli clinical isolates carrying two or more resistance determinants; test: Activity against E. coli clinical isolates with multiple resistance determinants; format: cell-based; settings: Escherichia coli
[9] = tested on: E. cloacae clinical isolates carrying two or more resistance determinants; format: cell-based; settings: Enterobacter cloacae
[10] = tested on: E. coli; test: Antibacterial activity against reference strains: E. coli; settings: for MIC: Escherichia coli
[11] = tested on: K. pneumoniae; test: Antibacterial activity against reference strains: K. pneumoniae; format: cell-based; settings: strain AG215
[12] = tested on: A. baumannii; test: Antibacterial activity against reference strains: A. baumannii; format: cell-based; settings: strain AG225
[13] = tested on: P. aeruginosa; test: Antibacterial activity against reference strains: P. aeruginosa; settings: strain AG031 carries the APH(3’) gene
[14] = tested on: E coli 70S ribosome (helix 44, A1408); test: Quantitative dimethyl sulfate footprinting of the 70S ribosome; format: binding; settings: read-out: apparent Kd; DMS footprinting, % protection of N1 of A1408, E. coli 70S ribosome
[15] = tested on: Mycobacterium abscessus; test: microbe, parasite or virus in culture; format: cell-based; settings: Mycobacteroides abscessus
[16] = tested on: Mycobacterium tuberculosis clinical isolates; test: microbe, parasite or virus in culture; format: cell-based; settings: Mycobacterium tuberculosis, read-out: MIC M. tuberculosis clinical isolates
[17] = read-out: Antibacterial activity (MIC) MRSA AG038
[18] = read-out: Antibacterial activity (MIC) MRSA AG042
[19] = read-out: Activity (MIC) E. coli AG006
[20] = read-out: Activity (MIC) E. coli AG007
[21] = read-out: Activity (MIC) E. coli AG008
[22] = read-out: Activity (MIC) E. coli AG009
[23] = read-out: Activity (MIC) E. coli AG036
[24] = read-out: Activity (MIC) E. coli AG103
[25] = read-out: Activity (MIC) E. coli AG105
[26] = read-out: Activity (MIC) E. coli AG166
[27] = read-out: Activity (MIC) E. coli isolate 201430298
[28] = read-out: Activity (MIC) E. coli isolate 201441114
[29] = read-out: Activity (MIC) E. coli isolate 2014251408
[30] = read-out: Activity (MIC) E. coli isolate 2014405344
[31] = read-out: Activity (MIC) E. cloacae isolate 201333207
[32] = read-out: Activity (MIC) E. cloacae isolate 201385168
[33] = read-out: Activity (MIC) E. cloacae isolate 201430601
[34] = read-out: Activity (MIC) E. cloacae isolate 201435487
[35] = read-out: Antibacterial activity (MIC) E. coli AG001
[36] = read-out: Antibacterial activity (MIC) E. coli AG003

With NCC[C@H](O)C(=O)N[C@@H]1C[C@H](N)[C@@H](O[C@H]2O[C@H](CN)[C@@H](O)[C@H](O)[C@H]2O)[C@H](O)[C@H]1O[C@H]1O[C@H](CO)[C@@H](O)[C@H](N)[C@H]1O [Amikacin] the IC50 wt [1] was 0.02 µg/mL (≈ 0.0342 µM), the “Selectivity Mit 13” value [2] was 600 and the “IC50 Mit13” value [2] was 12 µg/mL (≈ 20.5 µM). For the same molecule, the “Selectivity A1555G” value [3] was 21, the “IC50 A1555G” value [3] was 0.42 µg/mL (≈ 0.717 µM) and the “Selectivity Cyt14” value [4] was 4500. The “IC50 Cyt 14” value [4] was 90 µg/mL (≈ 154 µM), the MIC [5, 17] was 4 µg/mL (≈ 6.83 µM) and the MIC [5, 18] was 16 to 32 µg/mL (≈ 27.3 to 54.6 µM). For the same molecule, the MIC [6] was 1 µg/mL (≈ 1.71 µM), the MIC [7, 19] was 1 to 2 µg/mL (≈ 1.71 to 3.42 µM) and the MIC [7, 20] was 2 µg/mL (≈ 3.42 µM). It also gave an MIC [7, 21] of 1 to 2 µg/mL (≈ 1.71 to 3.42 µM), an MIC [7, 22] of 32 µg/mL (≈ 54.6 µM) and an MIC [7, 23] of 4 to 8 µg/mL (≈ 6.83 to 13.7 µM). For the same molecule, the MIC [7, 24] was over 128 µg/mL, the MIC [7, 25] was 2 µg/mL (≈ 3.42 µM) and the MIC [7, 26] was 2 µg/mL (≈ 3.42 µM). For the same molecule, the MIC [8, 27] was 8 µg/mL (≈ 13.7 µM), the MIC [8, 28] was 64 µg/mL (≈ 109 µM) and the MIC [8, 29] was 64 µg/mL (≈ 109 µM). The MIC [8, 30] was over 256 µg/mL, the MIC [9, 31] was 16 µg/mL (≈ 27.3 µM) and the MIC [9, 32] was over 256 µg/mL. It also gave an MIC [9, 33] of 8 µg/mL (≈ 13.7 µM), an MIC [9, 34] of 4 µg/mL (≈ 6.83 µM) and an MIC [10, 35] of 2 µg/mL (≈ 3.42 µM). The MIC [10, 36] was 2 µg/mL (≈ 3.42 µM).

With CCC1C(CO)OC(OC2C(N)CC(N)C(O)C2OC2OC(CO)C(OC3OC(CN)C(O)C(O)C3N)C2O)C(N)C1O (centres unmarked) [Compound 35] the IC50 wt [1] was 0.06 µg/mL (≈ 0.0956 µM), the “Selectivity Mit 13” value [2] was 3033 and the “IC50 Mit13” value [2] was 182 µg/mL (≈ 290 µM). For the same molecule, the “Selectivity A1555G” value [3] was 2150, the “IC50 A1555G” value [3] was 129 µg/mL (≈ 206 µM) and the “Selectivity Cyt14” value [4] was 1867. The “IC50 Cyt 14” value [4] was 112 µg/mL (≈ 178 µM), the “Antibacterial activity (MIC) MRSA AG038” value ([5]; strain AG038) was 8 µg/mL and the “Antibacterial activity (MIC) MRSA AG042” value ([5]; strain AG042 carries the AAC(6)’, ANT(4’,4’’) and APH(3’) genes) was 4 to 8 µg/mL. For the same molecule, the “Antibacterial activity (MIC) K. pneumoniae AG215” value [11] was 4 µg/mL, the “Antibacterial activity (MIC) E. cloacae AG290” value ([6]; strain AG290) was 4 to 8 µg/mL and the “Antibacterial activity (MIC) A. baumannii AG225” value [12] was 16 to 32 µg/mL. The “Antibacterial activity (MIC) E. coli AG001” value ([10]; strain AG001) was 8 µg/mL, the “Antibacterial activity (MIC) E. coli AG003” value ([10]; strain AG003 carries the AAC(3) gene) was 8 µg/mL and the “Antibacterial activity (MIC) P. aeruginosa AG031” value [13] was 64 to 128 µg/mL.

With NC[C@@H]1O[C@H](O[C@H]2[C@@H](O)[C@H](O[C@@H]3[C@@H](O)[C@H](N)C[C@H](N)[C@H]3O[C@H]3O[C@H](CO)[C@@H](O)[C@H](O)[C@H]3N)O[C@@H]2CO)[C@H](N)[C@@H](O)[C@@H]1O [Compound 1, paromomycin, reference compound] the IC50 wt [1] was 0.02 µg/mL (≈ 0.0325 µM), the “Selectivity Mit 13” value [2] was 2500 and the “IC50 Mit13” value [2] was 50 µg/mL (≈ 81.2 µM). The “Selectivity A1555G” value [3] was 270, the “IC50 A1555G” value [3] was 5.4 µg/mL (≈ 8.77 µM) and the “Selectivity Cyt14” value [4] was 470. For the same molecule, the “IC50 Cyt 14” value [4] was 9.4 µg/mL (≈ 15.3 µM), the MIC [5, 17] was 4 µg/mL (≈ 6.5 µM) and the MIC [5, 18] was over 256 µg/mL. The MIC [6] was 2 µg/mL (≈ 3.25 µM), the Kd [14] was 590 ± 50 nM and the MIC [7, 19] was 1 to 2 µg/mL (≈ 1.62 to 3.25 µM). For the same molecule, the MIC [7, 20] was 4 µg/mL (≈ 6.5 µM), the MIC [7, 21] was 2 to 4 µg/mL (≈ 3.25 to 6.5 µM) and the MIC [7, 22] was 4 µg/mL (≈ 6.5 µM). For the same molecule, the MIC [7, 23] was 32 to 64 µg/mL (≈ 52 to 104 µM), the MIC [7, 24] was 4 µg/mL (≈ 6.5 µM) and the MIC [7, 25] was 2 µg/mL (≈ 3.25 µM). It also gave an MIC [7, 26] of over 128 µg/mL, an MIC ([15]; read-out: MIC M. abscessus) of 64 µg/mL (≈ 104 µM) and an MIC ([15]; read-out: MIC M. abscessus, AAC(2’) gene deleted) of 16 µg/mL (≈ 26 µM). It also gave an MIC [16] of 2 to 4 µg/mL (≈ 3.25 to 6.5 µM), an MIC [10, 35] of 2 to 4 µg/mL (≈ 3.25 to 6.5 µM) and an MIC [10, 36] of 8 to 16 µg/mL (≈ 13 to 26 µM).

For NC[C@H]1O[C@H](O[C@H]2[C@H](O)[C@@H](O[C@H]3O[C@H](CO)[C@@H](O)[C@H](N)[C@H]3O)[C@H](N)C[C@@H]2N)[C@H](N)C[C@@H]1O [Tobramycin], the IC50 wt [1] was 0.02 µg/mL (≈ 0.0428 µM), the “Selectivity Mit 13” value [2] was 750 and the “IC50 Mit13” value [2] was 15 µg/mL (≈ 32.1 µM). The “Selectivity A1555G” value [3] was 25, the “IC50 A1555G” value [3] was 0.5 µg/mL (≈ 1.07 µM) and the “Selectivity Cyt14” value [4] was 1350. For the same molecule, the “IC50 Cyt 14” value [4] was 27 µg/mL (≈ 57.8 µM), the MIC [5, 17] was 0.5 to 1 µg/mL (≈ 1.07 to 2.14 µM) and the MIC [5, 18] was at least 256 µg/mL. The MIC [6] was 0.5 to 1 µg/mL (≈ 1.07 to 2.14 µM), the MIC [7, 19] was 0.5 µg/mL (≈ 1.07 µM) and the MIC [7, 20] was 4 µg/mL (≈ 8.56 µM). The MIC [7, 21] was 8 µg/mL (≈ 17.1 µM), the MIC [7, 22] was 64 to 128 µg/mL (≈ 137 to 274 µM) and the MIC [7, 23] was 16 to 32 µg/mL (≈ 34.2 to 68.4 µM). The MIC [7, 24] was over 128 µg/mL, the MIC [7, 25] was 1 µg/mL (≈ 2.14 µM) and the MIC [7, 26] was 0.5 to 1 µg/mL (≈ 1.07 to 2.14 µM). The MIC [8, 27] was 256 µg/mL (≈ 548 µM), the MIC [8, 28] was 32 µg/mL (≈ 68.4 µM) and the MIC [8, 29] was 128 µg/mL (≈ 274 µM). For the same molecule, the MIC [8, 30] was over 256 µg/mL, the MIC [9, 31] was 32 µg/mL (≈ 68.4 µM) and the MIC [9, 32] was over 256 µg/mL. For the same molecule, the MIC [9, 33] was 32 µg/mL (≈ 68.4 µM), the MIC [9, 34] was 16 µg/mL (≈ 34.2 µM) and the MIC [10, 35] was 1 to 2 µg/mL (≈ 2.14 to 4.28 µM). It also gave an MIC [10, 36] of 4 µg/mL (≈ 8.56 µM).
